Reference: patent US8680076B2, “Methods of treatment, improvement and prevention using haloaryl substituted aminopurines” (Signal Pharmaceuticals, LLC, priority 2010, dated 2014)
“Also recorded” adds a separate entry of the source.

How the values were obtained:
[1] = test system: dermal fibroblasts from SSc patients; assay: Expression of extracellular matrix proteins in dermal fibroblasts from SSc patients (real-time PCR, SirCol); assay type: cell-based, human
Method: Using fibroblasts isolated from skin biopsies from human systemic sclerosis (SSc) patients, an in vitro study was performed to evaluate whether the selective JNK inhibitor Compound JNKi-1 affects the expression of key extracellular matrix proteins.
(§1) Dermal fibroblasts from two SSc patients were treated for 24 hours (hr) with Compound JNKi-1 at concentrations from 0.1 μM to 10 μM (0.5% DMSO/99.5% cell culture media). To study the effect of Compound JNKi-1 on growth factor-induced collagen expression, recombinant transforming growth factor beta (TGF-β) (final concentration of 10 ng/mL) or platelet-derived growth factor-BB (PDGF-BB) (final concentration of 40 ng/mL) were added to cells 2 hr after the addition of JNK-inhibitor Compound JNKi-1 for 24 hr. The expression of collagen proteins was analyzed by SirCol assay. The messenger ribonucleic acid (mRNA) levels of extracellular proteins were measured by real-time polymerase chain reaction (PCR). The β-actin mRNA was used as internal control for the measurement of Collagen 1a1 mRNA using PCR. Fibroblast proliferation assay was performed in the presence or absence of 1 μM Compound JNKi-1 for 24 hr with the (3-(4,5-Dimethylthiazol-2-yl)-2,5-diphenyltetrazolium bromide) (MTT) assay.
The isolation of fibroblasts from human SSc patients and culture conditions used in this study have been previously described (Akhmetshina A, Dees C, Pileckyte M, Maurer B, Axmann R, Jüngel A, et al., Dual inhibition of c-abl and PDGF receptor signaling by dasatinib and nilotinib for the treatment of dermal fibrosis, FASEB J. 2008; 22(7):2214-22). Fibroblast cultures were obtained from skin biopsies of SSc patients. […] Biopsies from SSc patients were taken from involved skin of the forearm. After enzymatic digestion of the skin biopsies with Dispase II, fibroblasts were cultured in DMEM/F-12 containing 10% heat inactivated fetal calf serum (FCS), 100 U/mL penicillin, 100 μg/mL streptomycin, 2 mM L-glutamine and 2.5 μg/mL amphotericin B (all Invitrogen, Karlsruhe, Germany). Fibroblasts from passages 4-8 were used for the experiments. Data are expressed as mean±standard error of the mean (SEM).

[2] = test system: fibroblasts from SSc patients; assay: TGF-β and PDGF-induced total collagen secretion (SirCol assay); assay type: cell-based, human; settings: 1 μM
Method: as §1
The isolation of fibroblasts from human SSc patients and culture conditions used in this study have been previously described (Akhmetshina A, Dees C, Pileckyte M, Maurer B, Axmann R, Jüngel A, et al., Dual inhibition of c-abl and PDGF receptor signaling by dasatinib and nilotinib for the treatment of dermal fibrosis, FASEB J. 2008; 22(7):2214-22). […] Data are expressed as mean±standard error of the mean (SEM). […]

[3] = test system: DBA/2J mice, bleomycin-induced skin fibrosis; assay: Bleomycin-induced dermal fibrosis mouse model (preventive treatment); assay type: in vivo; settings: for reduction of collagen content in lesional skin (hydroxyproline assay): compared to bleomycin-treated animals
Method: The selective JNK inhibitor Compound JNKi-1 was tested in a bleomycin-induced dermal fibrosis mouse model, which is considered to represent the early and inflammatory stages of systemic sclerosis (Akhmetshina A, Venalis P, Dees C, Busch N, Zwerina J, Schett G, Distler O, Distler J H, Treatment with imatinib prevents fibrosis in different preclinical models of systemic sclerosis and induces regression of established fibrosis, Arthritis Rheum. 2009; 60(1):219-24). […] In animal models it will similarly induce injury and fibrosis at the site of delivery.
Male and female DBA/2J mice were used. Mice were fed a standard diet with water ad libitum. The room temperature was kept constant at 22° C. with a humidity of 60%.
Compound JNKi-1 was dissolved in 0.5% carboxymethylcellulose (CMC)/0.25% Tween 80 in water. Bleomycin was dissolved in 0.9% sodium chloride (NaCl) at a concentration of 0.5 mg/mL in a total volume of 100 μL. The positive control compound Imatinib mesylate was dissolved in 0.9% NaCl at a concentration of 50 mg/kg/day in a total volume of 100 μL.
Two different dose levels of the JNK-inhibitor Compound JNKi-1 (50 mg/kg and 150 mg/kg, administered twice daily) were used to analyze the anti-fibrotic activity in a mouse model of bleomycin-induced skin fibrosis. […] DBA/2J mice (n=5/sex/group) were assigned to one of five treatment groups: • Control group: 0.5% CMC/0.25% Tween 80 in water orally (PO) twice daily (BID) and subcutaneous injections of 100 μL 0.9% NaCl. • Untreated bleomycin group: intradermal injection of bleomycin and 0.5% CMC/0.25% Tween 80 in water orally BID. • 50 mg/kg Compound JNKi-1: intradermal injection of bleomycin and Compound JNKi-1 orally BID. • 150 mg/kg Compound JNKi-1: intradermal injection of bleomycin and Compound JNKi-1 orally BID. • Positive control group: intradermal injection of bleomycin and imatinib 50 mg/kg/day administered intraperitoneally (IP).
Localized dermal fibrosis was induced by injection of bleomycin every other day for 3 weeks in defined areas of the upper back. Compound JNKi-1 or imatinib was administrated starting from the first dose of bleomycin.
The dermal thickness was determined by staining with hematoxylin and eosin (H & E). The activated fibroblasts (myofibroblasts) at the fibrotic lesions were quantified by immunohistochemistry (IHC) for alpha smooth muscle actin (α-SMA). Collagen concentration in lesional skin was analyzed by hydroxyproline assay. Data are expressed as mean±standard error of the mean (SEM). SPSS17.0 software and the Mann-Whitney-U-test were used for statistical analyses. A p-value of less than 0.05 was considered statistically significant.

[4] = 1 μM, 24 hr, compared to mock-treated fibroblasts

O[C@H]1CC[C@H](Nc2ncc3nc(Nc4c(F)cc(F)cc4F)n([C@H]4CCOC4)c3n2)CC1 [JNKi-1, 4-((9-((3S)-tetrahydro-3-furanyl)-8-((2,4,6-trifluorophenyl)amino)-9H-purin-2-yl)amino)-trans-cyclohexanol]
expression of extracellular matrix proteins (in words) ([1]; 0.1 μM to 10 μM, 24 hr): reduced expression; also recorded: dose-dependently reduced | reduction of col 1a1 mRNA level [1, 4]: 71±11% | reduction of col 1a2 mRNA level [1, 4]: 61±13% | reduction of fibronectin-1 mRNA level [1, 4]: 55±14% | reduction of collagen protein in the supernatant ([1]; 1 μM, compared to control): 21±7% | concentration at which maximal effects were observed ([1]; tested 0.1 μM to 10 μM, 24 hr): 1 µM | TGF-β and PDGF-induced collagen secretion [2]: modestly inhibited | decrease of dermal thickness ([3]; 50 mg/kg orally BID, 3 weeks bleomycin, mean±SEM): 24%±5% | reduction of collagen content in lesional skin (hydroxyproline assay) ([3]; 50 mg/kg orally BID): 29%±11% | reduction of number of myofibroblasts (α-SMA IHC) ([3]; 50 mg/kg orally BID, mean±SEM): 80%±10% | reduction of collagen content in lesional skin (hydroxyproline assay) ([3]; 150 mg/kg orally BID): 47%±9% | reduction of number of myofibroblasts (α-SMA IHC) ([3]; 150 mg/kg orally BID, mean±SEM): 101%±9% | collagen content in lesional skin (in words) ([3]; 50 and 150 mg/kg orally BID): reduced dose-dependently | dermal thickness / development of fibrosis (in words) ([3]; 50 and 150 mg/kg orally BID): decreased dose-dependently; also recorded: reduced dose dependently; also recorded: significantly ameliorated; also recorded: dose-dependently inhibited dermal thickness | myofibroblasts in lesional skin (in words) ([3]; 50 and 150 mg/kg orally BID): significantly decreased; also recorded: completely prevented
